Among the test systems are EKVX; UACC-62; SW-620; HT-29; SF-268; K562; HCC 2998; MDA-MB-231; IGROV-1; KM12; SK-MEL-28; SNB-75; MOLT-4; COLO 205; MDA-MB-435; M14; BT-549; SK-OV-3; MCF7; NCI/ADR-RES.
Holding throughout (assay): inhibition of tumour cell growth, NCI panel, 48 h

The structures appear in SMILES notation.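 Cells were grown in 96-well plates and exposed to each compound for 48 hours at five concentrations; endpoints were interpolated linearly between bracketing concentrations, or set to the highest concentration if not reached. Abbreviation: GI50, concentration required for 50% inhibition of growth.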 Active and inactive are the calls of the source. Cut-off read from the data, not from the text of the source: active = GI50 up to about 1.1 µM and inactive = higher.

On to `COc1ccccc1/C=C/c1ccnc2ccccc12`, for which the GI50 in the test with EKVX is 11 µM (inactive); in the test on UACC-62, 11.7 µM (inactive); with SW-620, 13.8 µM (inactive); in the test with HT-29, 12.8 µM (inactive); in the test on SF-268 it was 14.2 µM (inactive); in the test with K562 it was 10.7 µM (inactive). For the same compound, the GI50 with HCC 2998 is 17.5 µM (inactive); with MDA-MB-231, 16.1 µM (inactive); in the test on IGROV-1, 4.97 µM (inactive); in the test on KM12, 12.3 µM (inactive); in the test with SK-MEL-28, 17.4 µM (inactive); in the test with SNB-75, 3.37 µM (inactive). For the same compound, the GI50 was 7.87 µM (inactive) in the test on MOLT-4; 17.1 µM (inactive) in the test on COLO 205; 7.16 µM (inactive) in the test on MDA-MB-435; 16.2 µM (inactive) in the test on M14; 10.9 µM (inactive) in the test on BT-549; 16 µM (inactive) with SK-OV-3. Moreover, the GI50 is 4.25 µM (inactive) in the test with MCF7 and 11.3 µM (inactive) with NCI/ADR-RES.

Consider `C/C(=N\NC(=S)N1CCN(c2ccccn2)CC1)c1nccs1`, for which the GI50 in the test on EKVX was 0.12 µM (active); in the test with UACC-62 it was 0.122 µM (active); in the test on SW-620, 0.279 µM (active); in the test on HT-29, 0.335 µM (active); in the test with SF-268, 0.794 µM (active); with K562, 0.01 µM (active). In addition, the GI50 in the test with HCC 2998 was 0.675 µM (active); in the test with MDA-MB-231, 0.022 µM (active); with IGROV-1, 0.228 µM (active); in the test with KM12, 0.485 µM (active); in the test on SK-MEL-28, 0.792 µM (active); in the test with SNB-75, 2.82 µM (inactive). Further, the GI50 is < 0.0225 µM (active) in the test with MOLT-4; < 0.0248 µM (active) in the test on COLO 205; 0.521 µM (active) in the test with MDA-MB-435; 0.16 µM (active) with M14; 2.02 µM (inactive) in the test on BT-549; 1.61 µM (inactive) with SK-OV-3. Also, the GI50 in the test with MCF7 is 0.00665 µM (active); in the test on NCI/ADR-RES, 0.0339 µM (active).

Take `NC(=S)N/N=C(\Cc1nc2ccc(Cl)cc2nc1O)C(=O)Nc1ccc(Cl)cc1`: the GI50 with EKVX was 76 µM (inactive); with UACC-62, > 100 µM (inactive); in the test on SW-620, > 100 µM (inactive); in the test with HT-29, > 100 µM (inactive); in the test with SF-268 it was > 100 µM (inactive); with HCC 2998, > 100 µM (inactive). Further, the GI50 in the test with MDA-MB-231, in the test with IGROV-1, in the test with KM12, in the test with SK-MEL-28, in the test on SNB-75 and in the test with MOLT-4 was > 100 µM (inactive) in each case. Moreover, the GI50 in the test on COLO 205, in the test with MDA-MB-435, in the test on M14, in the test on BT-549, with SK-OV-3 and with MCF7 was > 100 µM (inactive) each time. For the same compound, the GI50 with NCI/ADR-RES was > 100 µM (inactive).

For `Cc1ccc(/N=N/N(C)C(C)C(O)Cc2ccccc2)cc1` (stereo not drawn), the GI50 in the test on EKVX was 62.2 µM (inactive); in the test on UACC-62, 52.1 µM (inactive); in the test with SW-620, 64.9 µM (inactive); with HT-29, 80.4 µM (inactive); in the test with SF-268, 46 µM (inactive); with K562, 39.3 µM (inactive). For the same compound, the GI50 in the test with HCC 2998 is 53.3 µM (inactive); in the test with MDA-MB-231 it was 52.7 µM (inactive); in the test on IGROV-1 it was 29.2 µM (inactive); in the test with KM12 it was 25.2 µM (inactive); in the test with SK-MEL-28, 65.8 µM (inactive); in the test on SNB-75, 43.9 µM (inactive). Moreover, the GI50 with MOLT-4 is 33.7 µM (inactive); in the test with COLO 205, 40.9 µM (inactive); in the test with MDA-MB-435 it was 35.9 µM (inactive); in the test with M14, 95.7 µM (inactive); in the test with BT-549, 41 µM (inactive); in the test with SK-OV-3 it was > 100 µM (inactive). The GI50 was 47.9 µM (inactive) in the test on MCF7 and 40.4 µM (inactive) in the test with NCI/ADR-RES.

On to `COC(=O)/C=C1/OC(c2ccccc2)=C(Cl)C1=O`, for which the GI50 in the test on EKVX is 19.5 µM (inactive); in the test on UACC-62, 18 µM (inactive); in the test on SW-620 it was 20.5 µM (inactive); with HT-29, 22.3 µM (inactive); with SF-268 it was 19.5 µM (inactive); with K562, 6.07 µM (inactive). Besides, the GI50 with HCC 2998 is 20.2 µM (inactive); in the test with MDA-MB-231, 18.8 µM (inactive); in the test on IGROV-1 it was 19.8 µM (inactive); in the test with KM12, 21 µM (inactive); in the test on SK-MEL-28 it was 21.1 µM (inactive); with SNB-75 it was 20.1 µM (inactive). Moreover, the GI50 was 5.32 µM (inactive) in the test with MOLT-4; 15.9 µM (inactive) in the test with COLO 205; 19.3 µM (inactive) in the test on MDA-MB-435; 16.9 µM (inactive) in the test with M14; 18.5 µM (inactive) in the test with BT-549; 31.6 µM (inactive) in the test with SK-OV-3. In addition, the GI50 in the test on MCF7 is 16.7 µM (inactive); in the test with NCI/ADR-RES it was 25.9 µM (inactive).

Regarding `CC1=C2C(=O)OCC23C=COC3(C)O1` (stereo not drawn), the GI50 is 35.7 µM (inactive) in the test on EKVX; 19.4 µM (inactive) in the test on UACC-62; 26.2 µM (inactive) in the test with SW-620; 29.3 µM (inactive) in the test on HT-29; 60.7 µM (inactive) in the test on SF-268; 31.8 µM (inactive) with K562. Also, the GI50 in the test on HCC 2998 is 69.3 µM (inactive); in the test with MDA-MB-231, 18.6 µM (inactive); with IGROV-1, 32.7 µM (inactive); in the test with KM12, 26.9 µM (inactive); with SK-MEL-28 it was 20.4 µM (inactive); with SNB-75 it was 24.8 µM (inactive). The GI50 with MOLT-4 is 21.4 µM (inactive); in the test on COLO 205 it was 21.5 µM (inactive); with MDA-MB-435 it was 20.7 µM (inactive); in the test on M14, 24.7 µM (inactive); in the test on BT-549, 44.4 µM (inactive); in the test with SK-OV-3 it was 46 µM (inactive). Further, the GI50 in the test with MCF7 was 36.2 µM (inactive); in the test on NCI/ADR-RES, 34.9 µM (inactive).

Turning to `CC(C)=CCC/C(C)=C/CC/C(C)=C/CC/C(C=O)=C/CC/C(C)=C\CC/C(C)=C/CC/C(C)=C/CC/C(C)=C/CC1=CC(=O)C=CC1=O`, the GI50 in the test on EKVX is > 100 µM (inactive); with UACC-62 it was 21.1 µM (inactive); in the test with SW-620, > 100 µM (inactive); with SF-268 it was > 100 µM (inactive); in the test with K562, > 100 µM (inactive); in the test with HCC 2998 it was > 100 µM (inactive). The GI50 in the test with MDA-MB-231 was > 100 µM (inactive); in the test on IGROV-1, 31.8 µM (inactive); with KM12, 81.3 µM (inactive); with SK-MEL-28, > 100 µM (inactive); with SNB-75, 38.1 µM (inactive); in the test with MOLT-4, 55.5 µM (inactive). Moreover, the GI50 in the test on COLO 205 was 73.8 µM (inactive); with MDA-MB-435, 56.4 µM (inactive); in the test on M14, 45.3 µM (inactive); in the test on BT-549 it was > 100 µM (inactive); in the test on SK-OV-3, > 100 µM (inactive); in the test on MCF7, 0.365 µM (active). Also, the GI50 in the test on NCI/ADR-RES was > 100 µM (inactive).

Regarding `O=C(O)C/C=C/CC(=O)O`, the GI50 is > 100 µM (inactive) in the test on EKVX; > 100 µM (inactive) in the test with UACC-62; > 100 µM (inactive) in the test with SW-620; > 100 µM (inactive) in the test with HT-29; > 100 µM (inactive) in the test with SF-268; 67.1 µM (inactive) in the test with K562. The GI50 in the test with HCC 2998, with MDA-MB-231, in the test with IGROV-1, in the test with KM12, in the test on SK-MEL-28 and in the test with SNB-75 was > 100 µM (inactive) each time. Further, the GI50 in the test on MOLT-4, in the test on COLO 205, with MDA-MB-435, in the test with M14, in the test on BT-549 and in the test on SK-OV-3 was > 100 µM (inactive) each time. The GI50 in the test with MCF7 and in the test on NCI/ADR-RES was > 100 µM (inactive) each time.

Consider `CCOC(=O)c1nc2ccc(C(F)(F)F)cc2nc1Nc1cc(OC)c(OC)c(OC)c1`, for which the GI50 in the test with EKVX, with UACC-62, with SW-620, in the test with HT-29, with SF-268 and in the test on K562 was > 100 µM (inactive) throughout. In addition, the GI50 with HCC 2998, with MDA-MB-231, with IGROV-1, in the test with KM12, in the test with SK-MEL-28 and with SNB-75 was > 100 µM (inactive) in each case. Besides, the GI50 in the test with MOLT-4, in the test on COLO 205, with MDA-MB-435, with M14, in the test on BT-549 and in the test on SK-OV-3 was > 100 µM (inactive) each time. In addition, the GI50 in the test with MCF7 and with NCI/ADR-RES was > 100 µM (inactive) throughout.

For `COc1c(O)c(OC)c2oc(-c3ccc(O)c(O)c3)c(OC)c(=O)c2c1O`, the GI50 was 29.6 µM (inactive) in the test on EKVX; 7.52 µM (inactive) in the test with UACC-62; 36.1 µM (inactive) with SW-620; 30.7 µM (inactive) with HT-29; 3.52 µM (inactive) in the test on SF-268; 18.5 µM (inactive) with K562. The GI50 in the test on HCC 2998 is 29.3 µM (inactive); in the test on MDA-MB-231, 23.1 µM (inactive); in the test on IGROV-1, 10.4 µM (inactive); in the test with KM12 it was 48.3 µM (inactive); in the test with SK-MEL-28 it was 18.7 µM (inactive); in the test on SNB-75 it was 3.62 µM (inactive). The GI50 is 28.4 µM (inactive) in the test with MOLT-4; 27.1 µM (inactive) with COLO 205; 3.13 µM (inactive) in the test with MDA-MB-435; 17.6 µM (inactive) with M14; 6.81 µM (inactive) in the test on BT-549; 15.9 µM (inactive) with SK-OV-3. For the same compound, the GI50 with MCF7 is 4.1 µM (inactive); in the test on NCI/ADR-RES it was 55.1 µM (inactive).

For the origin of these results see ChEMBL document CHEMBL1201862, “PubChem BioAssay data set” (2004).
